The target of the experiment is T1, PSMA (Homo sapiens, UniProt Q04609).
T1 construct: LNcap cells were trypsinized and washed with cold Tris buffer; endogenous in cells; host or cells: LNCaP cells (printed 'LNcap'), whole-cell suspension
The experiment is described as follows: Competition binding assay against 3H-ZJ24. To be noted: PSMA-expressing LNcap cells, 12 nM 3H-labelled ZJ24, 1 h at 37° C.; read-out: IC50 (concentration of ligand required to inhibit 50% of binding). How it is done: LNcap cells were trypsinized and washed with cold Tris buffer (0.5 mM). […] Each group was done in triplicate. The mixture was then centrifuged and washed three times with cold PBS. Finally, 4 m L of EcoLume cocktail (MP biomedicals) was added to each sample, and radioactivity was counted by a scintillation counter. The concentration of ligands required to inhibit 50% of binding (IC50) was determined by GraphPad Prism 3.0.

Structures are written as SMILES. Numbered stars: 1 amine (or outer) side, 2 acyl side, 3 side chain; on linkers, the order of the positions; unused ones are H or OH. Square brackets hold non-standard residues; d marks the D form. Peptide text beside a SMILES is read from it. γGlu = O=C(O)[C@H](CCC(=O)[*:2])N[*:1]; X1 = O=C(C1CCC(CN[*:1])CC1)[*:2]; CO = O=C([*:1])[*:2]; Ahx = NCCCCCC(=O)O

T1 sequence (Q04609 whole entry): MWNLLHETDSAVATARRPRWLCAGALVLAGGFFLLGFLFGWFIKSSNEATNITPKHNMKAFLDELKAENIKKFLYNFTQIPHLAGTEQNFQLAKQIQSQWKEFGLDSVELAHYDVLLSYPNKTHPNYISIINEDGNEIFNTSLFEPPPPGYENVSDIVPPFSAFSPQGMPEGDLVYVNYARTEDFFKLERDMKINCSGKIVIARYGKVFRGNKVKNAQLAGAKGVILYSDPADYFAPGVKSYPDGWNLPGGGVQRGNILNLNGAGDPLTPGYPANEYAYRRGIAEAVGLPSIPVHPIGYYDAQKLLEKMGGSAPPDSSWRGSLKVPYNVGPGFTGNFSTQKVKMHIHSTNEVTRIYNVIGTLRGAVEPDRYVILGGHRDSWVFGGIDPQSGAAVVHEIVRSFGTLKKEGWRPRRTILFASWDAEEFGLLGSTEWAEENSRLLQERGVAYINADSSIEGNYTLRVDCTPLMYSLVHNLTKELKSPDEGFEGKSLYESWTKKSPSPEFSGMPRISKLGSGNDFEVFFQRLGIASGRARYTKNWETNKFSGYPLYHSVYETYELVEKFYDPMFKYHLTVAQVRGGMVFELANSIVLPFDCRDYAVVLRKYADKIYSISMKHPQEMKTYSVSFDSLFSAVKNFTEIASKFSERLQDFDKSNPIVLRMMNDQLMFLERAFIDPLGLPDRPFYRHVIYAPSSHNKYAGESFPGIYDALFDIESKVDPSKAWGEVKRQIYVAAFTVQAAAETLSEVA

With `CSC[C@H](NC(=O)N[C@@H](CCC(=O)O)C(=O)O)C(=O)O` [ZJ24], the IC50 was 8.31 nM. Consider `NCCCC[C@H](NC(=O)[C@H](CCC(=O)O)NC(=O)[C@H](CCC(=O)O)NC(=O)[C@H](CCC(=O)O)NC(=O)CCCCCNC(=O)C1CCC(CNC(=O)CC[C@H](NC(=O)N[C@@H](CCC(=O)O)C(=O)O)C(=O)O)CC1)C(=O)N[C@@H](Cc1ccc(O)cc1)C(=O)N[C@@H](CS)C(N)=O` (stereo partly drawn) [CY-PSMA-1, Glu-CO-Glu′-Amc-Ahx-Glu-Glu-Glu-Lys-Tyr-Cys-NH2] ({Glu-CO-γGlu}-[X1][Ahx]EEEKYC-NH2), for which the IC50 came out at 1.69 nM.

Source of the values: patent US12133901B2, “PSMA ligand targeted compounds and uses thereof” (CASE WESTERN RESERVE UNIVERSITY, priority 2019, dated 2024).
